Assay results published in patent publication US6878698B2, “Anti-inflammatory androstane derivatives” (Glaxo Group Limited, priority 2001, dated 2005).
Entries after “also recorded” stand apart in the source; their conditions may differ.

Key:
[1] = biological target: T1, glucocorticoid receptor (Homo sapiens, UniProt P04150); assay: Functional in vitro assay of glucocorticoid agonist activity (A549 cells, NF-κB/ELAM promoter sPAP reporter, TNF stimulated); format: cell-based; settings: for EC50: A549 cells, NF-κB responsive sPAP reporter, compound 1 hour at 37° C., then TNF 10 ng/ml for 16 hours
T1 construct: A549 cells stably transfected with a reporter gene containing the NF-κB responsive elements from the ELAM gene promoter; endogenous in cells; host or cells: A549 cells stably transfected with the reporter gene only
T1 sequence (P04150 1-777): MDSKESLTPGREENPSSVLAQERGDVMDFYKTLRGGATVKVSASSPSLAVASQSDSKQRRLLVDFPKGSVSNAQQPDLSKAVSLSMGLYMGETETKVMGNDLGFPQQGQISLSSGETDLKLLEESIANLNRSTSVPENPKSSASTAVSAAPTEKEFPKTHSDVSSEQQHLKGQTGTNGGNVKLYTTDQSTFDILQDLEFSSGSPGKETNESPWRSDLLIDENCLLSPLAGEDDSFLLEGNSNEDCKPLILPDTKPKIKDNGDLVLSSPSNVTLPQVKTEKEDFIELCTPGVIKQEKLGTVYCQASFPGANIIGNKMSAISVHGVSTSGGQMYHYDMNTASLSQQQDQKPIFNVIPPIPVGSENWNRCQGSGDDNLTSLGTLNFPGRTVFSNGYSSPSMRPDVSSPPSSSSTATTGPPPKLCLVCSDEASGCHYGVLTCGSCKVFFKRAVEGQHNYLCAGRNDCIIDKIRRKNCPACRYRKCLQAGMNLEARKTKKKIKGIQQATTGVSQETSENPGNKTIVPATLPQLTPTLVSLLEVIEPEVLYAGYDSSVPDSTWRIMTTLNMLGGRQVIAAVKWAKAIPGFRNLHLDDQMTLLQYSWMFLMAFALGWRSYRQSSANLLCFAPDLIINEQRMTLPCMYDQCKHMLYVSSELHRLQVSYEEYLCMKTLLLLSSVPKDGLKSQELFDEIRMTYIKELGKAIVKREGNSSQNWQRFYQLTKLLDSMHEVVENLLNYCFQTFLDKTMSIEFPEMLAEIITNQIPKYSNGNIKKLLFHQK
Description: Pharmacological activity was assessed in a functional in vitro assay of glucocorticoid agonist activity which is generally predictive of anti-inflammatory or anti-allergic activity in vivo.
A549 cells stably transfected with a reporter gene containing the NF-κB responsive elements from the ELAM gene promoter coupled to sPAP (secreted alkaline phosphatase) were treated with test compounds at appropriate doses for 1 hour at 37° C. […] Dose response curves were constructed from which EC50 values were estimated.

[2] = Pharmacokinetics after intravenous (IV) and oral dosing in rats; settings: for plasma clearance (in words): in vivo in the rat
[3] = in vivo; settings: male, Wistar Han, rat, plasma, iv, 0.1 mg/kg
[4] = biological target: T2, glucocorticoid receptor (GR) (Homo sapiens, UniProt P04150); assay: Transrepression (NFκB): firefly luciferase NFκB reporter in A549 cells stimulated with TNFα; format: cell-based; settings: 1 h compound, then 0.5 ng/ml TNFα, further 15 hours, read-out: Transrepression (NFκB) ED50
Text: (§1) The glucocorticoid receptor (GR) can function in at least two distinct mechanisms, by upregulating gene expression through the direct binding of GR to specific sequences in gene promoters, and by downregulating gene expression that is being driven by other transcription factors (such as NFκB or AP-1) through their direct interaction with GR.
(§2) The first cell line contains the firefly luciferase reporter gene under the control of a synthetic promoter that specifically responds to activation of the transcription factor NFκB when stimulated with TNFα. The second cell line contains the renilla luciferase reporter gene under the control of a synthetic promotor that comprises 3 copies of the consensus glucocorticoid response element, and which responds to direct stimulation by glucocorticoids. Simultaneous measurement of transactivation and transrepression was conducted by mixing the two cell lines in a 1:1 ratio in 96 well plate (40,000 cells per well) and growing overnight at 37° C. Test compounds were dissolved in DMSO, and added to the cells at a final DMSO concentration of 0.7%. After incubation for 1 h 0.5 ng/ml TNFα (R&D Systems) was added and after a further 15 hours at 37° C., the levels of firefly and renilla luciferase were measured using the Packard Firelite kit following the manufacturers' directions. Dose response curves were constructed from which EC50 values were determined.

[5] = biological target: T2, glucocorticoid receptor (GR); assay: Transactivation (GR): renilla luciferase reporter with glucocorticoid response elements in A549 cells; format: cell-based; settings: GRE renilla luciferase reporter, 1 h compound, then 0.5 ng/ml TNFα, further 15 hours, read-out: Transactivation (GR) ED50
Text: as §1, §2

[6] = tested on: thymus weight; assay: Rat model of thymus involution; format: in vivo; settings: 3 daily IT doses of 100 μg
[7] = tested on: lung eosinophilia; assay: Ovalbumin sensitised Brown Norway rat eosinophilia model; format: in vivo; settings: for inhibition of lung eosinophilia: single intra-tracheal dose of 30 μg, suspension in saline, 30 min prior to ovalbumin challenge
Description: Pharmacological activity in vivo was assessed in an ovalbumin sensitised Brown Norway rat eosinophilia model. This model is designed to mimic allergen induced lung eosinophilia, a major component of lung inflammation in asthma.

[8] = Pharmacokinetics after intravenous administration in the anaesthetised pig; format: in vivo; settings: mixture of the two compounds IV at 0.1 mg/kg
Text: The clearance of these two glucocortocoids is similar is this experimental pig model.

[9] = Pharmacokinetics after intra-tracheal dry powder dosing in the pig; format: in vivo; settings: for time after dosing up to which quantifiable in plasma / AUC (0-inf): 1 mg intra-tracheal dry powder; for time after dosing up to which quantifiable in plasma: LC-MS/MS, lower limits of quantitation 10 and 20 pg/mL; for Cmax: 1 mg intra-tracheal dry powder blend in lactose, anaesthetised; for AUC (0-inf): Example 1 value calculated with plasma half-life from IV dosing
Description: Serial blood samples were taken for up to 8 h following dosing.

[10] = tested on: human hepatocytes; assay: In vitro metabolism in human hepatocytes; format: in vitro ADME; settings: 17-β carboxylic acid (X) the only significant metabolite
[11] = tested on: rat hepatocytes; assay: In vitro metabolism in rat hepatocytes; format: in vitro ADME; settings: 17-β carboxylic acid (X) the only significant metabolite

For `Cc1noc(C)c1C(=O)O[C@]1(C(=O)SCF)[C@H](C)C[C@H]2[C@@H]3C[C@H](F)C4=CC(=O)C=C[C@]4(C)[C@@]3(F)[C@@H](O)C[C@@]21C` [Example 10, 6α,9α-Difluoro-17α-[(3,5-dimethylisoxazole-4-carbonyl)oxy]-11β-hydroxy-16α-methyl-3-oxo-androsta-1,4-diene-17β-carbothioic acid S-fluoromethyl ester], which EC50 [1] is on record?
Its EC50 is 1 nM.

Which results are given for `Cc1cc(C(=O)OC2(C(=O)SCF)C(C)CC3C4CC(F)C5=CC(=O)C=CC5(C)C4(F)C(O)CC32C)on1` (stereo not drawn) [Example 25, 6α,9α-Difluoro-11β-hydroxy-16α-methyl-17α-[(3-methylisoxazole-5-carbonyl)oxy]-3-oxo-androsta-1,4-diene-17β-carbothioic acid S-fluoromethyl ester]?
plasma clearance (in words) [2]: approaching hepatic blood flow; clearance [3]: 46 mL/min/kg

For `CC1CC2C3CC(F)C4=CC(=O)C=CC4(C)C3(F)C(O)CC2(C)C1(OC(=O)c1ccon1)C(=O)SCF` (stereo not drawn) [Example 28, 6α,9α-Difluoro-11β-hydroxy-17α-[(isoxazole-3-carbonyl)oxy]-16α-methyl-3-oxo-androsta-1,4-diene-17β-carbothioic acid S-fluoromethyl ester], which “plasma clearance (in words)” value [2] is on record?
The value was “approaching hepatic blood flow”.

What about the clearance [3] of the same molecule?
The clearance was 51 mL/min/kg.

Which results are given for `CC1CC2C3CC(F)C4=CC(=O)C=CC4(C)C3(F)C(O)CC2(C)C1(OC(=O)c1ccsc1)C(=O)SCF` (stereo not drawn) [Example 4, 6α,9α-Difluoro-11β-hydroxy-16α-methyl-3-oxo-17α-[(3-thienylcarbonyl)oxy]-androsta-1,4-diene-17β-carbothioic acid S-fluoromethyl ester]?
plasma clearance (in words) [2]: approaching hepatic blood flow; clearance [3]: 49 mL/min/kg

For `Cc1cc(C(=O)OC2(C(=O)SCF)C(C)CC3C4CC(F)C5=CC(=O)C=CC5(C)C4(F)C(O)CC32C)no1` (stereo not drawn) [Example 24, 6α,9α-Difluoro-11β-hydroxy-16α-methyl-17α-[(5-methylisoxazole-3-carbonyl)oxy]-3-oxo-androsta-1,4-diene-17β-carbothioic acid S-fluoromethyl ester], which “plasma clearance (in words)” value [2] is on record?
The value was “approaching hepatic blood flow”.

And the clearance [3]?
Its clearance is 47 mL/min/kg.

Which EC50 [1] does the source give for `C[C@@H]1C[C@H]2[C@@H]3C[C@H](F)C4=CC(=O)C=C[C@]4(C)[C@@]3(F)[C@@H](O)C[C@]2(C)[C@@]1(OC(=O)c1cc(Cl)sc1Cl)C(=O)SCF` [Example 14, 17α-[(2,5-Dichlorothiophene-3-carbonyl)oxy]-6α,9α-difluoro-11β-hydroxy-16α-methyl-3-oxo-androsta-1,4-diene-17β-carbothioic acid S-fluoromethyl ester] here?
Its EC50 is 2 nM.

For `C[C@@H]1C[C@H]2[C@@H]3C[C@H](F)C4=CC(=O)C=C[C@]4(C)[C@@]3(F)[C@@H](O)C[C@]2(C)[C@@]1(OC(=O)c1ccco1)C(=O)O` [Metabolite (X)], which EC50 [4] is on record?
Its EC50 is > 1000 nM.

What about the “fold less active than the parent compound” value ([1]; in vitro functional glucocorticoid agonist assays, relative to Example 1) of the same molecule?
Its value is > 1000 fold.

What about the EC50 [5] of the same molecule?
Its EC50 is > 250 nM.

With `Cc1nc(C)c(C(=O)O[C@]2(C(=O)SCF)[C@H](C)C[C@H]3[C@@H]4C[C@H](F)C5=CC(=O)C=C[C@]5(C)[C@@]4(F)[C@@H](O)C[C@@]32C)s1` [Example 23, 6α,9α-Difluoro-17α-[(2,4-dimethyl-1,3-thiazole-5-carbonyl)oxy]-11β-hydroxy-16α-methyl-3-oxo-androsta-1,4-diene-17 β-carbothioic acid S-fluoromethyl ester] as the molecule, how does the EC50 [1] read?
The EC50 was 17 nM.

Which clearance [3] does the source give for `Cc1ncsc1C(=O)OC1(C(=O)SCF)C(C)CC2C3CC(F)C4=CC(=O)C=CC4(C)C3(F)C(O)CC21C` (stereo not drawn) [Example 41, 6α,9α-Difluoro-11β-hydroxy-16α-methyl-17α-[(4-methyl-1,3-thiazole-5-carbonyl)oxy]-3-oxo-androsta-1,4-diene-17β-carbothioic acid S-fluoromethyl ester] here?
The clearance was 42 mL/min/kg.

With `CCC(=O)O[C@]1(C(=O)SCF)[C@H](C)C[C@H]2[C@@H]3C[C@H](F)C4=CC(=O)C=C[C@]4(C)[C@@]3(F)[C@@H](O)C[C@@]21C` [Fluticasone propionate, 6α, 9α-Difluoro-17α-(1-oxopropoxy)-11β-hydroxy-16α-methyl-3-oxo-androsta-1,4-diene-17β-carbothioic acid S-fluoromethyl ester, reference compound] as the molecule, how does the “reduction of thymus weight” value [6] read?
The value was 78%.

And the “inhibition of lung eosinophilia” value [7]?
Its value is 41%.

And the “clearance (in words)” value [8]?
Its value is “similar”.

What about the “pharmacokinetic parameters following intravenous administration (in words)” value [8] of the same molecule?
Its value is “the same”.

And the “time after dosing up to which quantifiable in plasma” value [9]?
Its value is “up to 8 hours”.

Which “manner of metabolism (in words)” value [10] does the source give for `C[C@@H]1CC2C3C[C@H](F)C4=CC(=O)C=C[C@]4(C)[C@@]3(F)[C@@H](O)C[C@]2(C)[C@@]1(OC(=O)c1ccco1)C(=O)SCF` (stereo partly drawn) [Example 1, 6α,9α-Difluoro-17α-[(2-furanylcarbonyl)oxy]-11β-hydroxy-16α-methyl-3-oxo-androsta-1,4-diene-17β-carbothioic acid S-fluoromethyl ester] here?
The value was “metabolised in an identical manner to fluticasone propionate”.

And the “reduction of thymus weight” value [6]?
The value was 67%.

And the plasma clearance ([2]; IV 0.1 mg/kg, male Wistar Han rats)?
The plasma clearance was 47.3 mL/min/kg.

And the “plasma clearance (in words)” value [2]?
The value was “approaching hepatic blood flow”.

What about the “inhibition of lung eosinophilia (in words)” value ([7]; intra-tracheal suspension in saline 30 min prior to ovalbumin challenge) of the same molecule?
Its value is “dose dependant inhibition”.

And the “inhibition of lung eosinophilia” value [7]?
The value was 69%.

What about the “clearance (in words)” value [8] of the same molecule?
The value was “similar”.

And the “pharmacokinetic parameters following intravenous administration (in words)” value [8]?
The value was “the same”.

What about the “time after dosing up to which quantifiable in plasma” value [9] of the same molecule?
Its value is “up to 2 hours”.

What about the “Cmax” value ([9]; Pig 1) of the same molecule?
The value was 0.117 ng/mL.

What about the “AUC (0-inf)” value ([9]; Pig 1) of the same molecule?
The value was 0.254 ng·h/mL.

And the “Cmax” value ([9]; Pig 2)?
Its value is 0.081 ng/mL.

And the “AUC (0-inf)” value ([9]; Pig 2)?
The value was 0.221 ng·h/mL.

What about the “systemic exposure compared to fluticasone propionate (in words)” value ([9]; dry powder delivery to the lungs of anaesthetised pigs) of the same molecule?
The value was “markedly reduced systemic exposure; also recorded: significantly lower exposure”.

What about the “manner of metabolism (in words)” value [11] of the same molecule?
The value was “metabolised in an identical manner to fluticasone propionate”.

Which results are given for `Cc1ccoc1C(=O)OC1(C(=O)SCF)C(C)CC2C3CC(F)C4=CC(=O)C=CC4(C)C3(F)C(O)CC21C` (stereo not drawn) [Example 19, 6α,9α-Difluoro-11β-hydroxy-16α-methyl-17α-[(3-methylfuran-2-carbonyl)oxy]-3-oxo-androsta-1,4-diene-17β-carbothioic acid S-fluoromethyl ester]?
plasma clearance (in words) [2]: approaching hepatic blood flow; clearance [3]: 48 mL/min/kg
